Laboratory results: patent US20200277378A1, “COMBINATION THERAPIES” (Novartis AG, priority 2017, published 2020)
Where a name gives a salt, the structure may show the parent alone.

How the values were obtained:
[1] = target: human CXCR2 receptor (Homo sapiens, UniProt P25025); details: membranes from CHO cells expressing human CXCR2 receptor
[2] = tested on: neutrophils; test: rhGROα-induced neutrophil migration; format: cell-based
[3] = tested on: neutrophils in whole human blood; test: rhGROα-induced neutrophil shape change in whole human blood; format: cell-based
[4] = Clinical study of PDR001 in combination with a CXCR2 inhibitor (DLT evaluation); format: in vivo, human; details: PDR001 400 mg Q4W + CXCR2 inhibitor 75 mg BID 2 weeks on/2 week off; seven patients dosed, two completed 56-day DLT period
Procedure: The primary objective of this study is to combine the PDR001 checkpoint inhibitor with the CXCR2 inhibitor, 6-chloro-3-((3,4-dioxo-2-(pentan-3-ylamino)cyclobut-1-en-1-yl)amino)-2-hydroxy-N-methoxy-N-methylbenzenesulfonamide choline salt, to identify the doses and schedule for combination therapy and to preliminarily assess the safety, tolerability, pharmacological and clinical activity of these combinations.
Patients are dosed on a flat scale and not by body weight or body surface area. Dosing of the CXCR2 inhibitor occurs immediately after completion of the PDR001 infusion during clinic visits. Patients are treated with 400 mg PDR001 every four weeks (i.e., Q4W). The CXCR2 inhibitor is administered orally twice daily, approximately 12 hours apart, with approximately 240 mL of water on an empty stomach at least 1 hour before or 2 hours after a meal, at about the same time every day. Patients are instructed not to chew the medication but to swallow it whole. The CXCR2 inhibitor is administered at a starting dose of 75 mg BID, two weeks on/two weeks off in each 28-day cycle or one week on/two weeks off in each 21-day cycle. If tolerated, the dose may be escalated to 150 mg BID two weeks on/two weeks off or one week on/two weeks off. […] Multiple dose levels below the MTD may be evaluated simultaneously in order to obtain PK and PD data across a range of doses and to establish the MTD/RDE. […]

[5] = tested on: MC38 tumors; test: PD-L1 expression on tumor-infiltrating dendritic cells and macrophages in MC38 colon carcinoma mouse model; format: in vivo, C57BL/6 mice; details: combination BLZ945 200 mg/kg p.o. weekly + 5D12 10 mg/kg i.p. biweekly, day 9
Procedure: C57BL/6 mice (Charles River Laboratories) were implanted with 1×10^6 MC38 cells subcutaneously. When tumors were 70-100 mm3 in size, mice were randomized into groups of 8 animals and treated with an anti-TIM-3 antibody (5D12), a CSF-1R binding agent (BLZ945), both 5D12 antibody and BLZ945, or with vehicle control. Mice were dosed orally (p.o.) or intraperitoneally (i.p.). The groups of mice were dosed as follows:
Group 1) Vehicle p.o+antibody Isotype (mIgG1) i.p; Group 2) BLZ945 200 mg/kg p.o+antibody isotype (mIgG1) i.p; Group 3) Vehicle p.o+5D12 (mouse anti-TIM-3) 10 mg/kg i.p; Group 4) BLZ945 200 mg/kg p.o+5D12 (mouse anti-TIM-3) 10 mg/kg i.p. BLZ945 was dosed weekly and 5D12 was dosed biweekly.
At Day 9 post-treatment initiation, mice were sacrificed. Tumors were harvested and processed into single cell suspensions for analysis by flow cytometry. The single cell suspension was generated using a combination of dispase, collagenase and DNase 1. The tumor infiltrating immune cells were analyzed by flow cytometry. Samples were acquired on a BD Fortessa and data was analyzed using Flowjo. Populations were defined as follows: dendritic cells (CD45+CD11b+Ly6C-MHC-II+Ly6G-F480−) and macrophages (CD45+CD11b+Ly6C-MHC-II+Ly6G-F480+). Levels of PD-L1 expression were analyzed as the mean fluorescence intensity of signal in the PD-L1 channel. […]

[6] = tested on: PBMCs from whole blood activated by SEB; format: cell-based, human

human CXCR2 receptor, sequence (P25025 whole entry): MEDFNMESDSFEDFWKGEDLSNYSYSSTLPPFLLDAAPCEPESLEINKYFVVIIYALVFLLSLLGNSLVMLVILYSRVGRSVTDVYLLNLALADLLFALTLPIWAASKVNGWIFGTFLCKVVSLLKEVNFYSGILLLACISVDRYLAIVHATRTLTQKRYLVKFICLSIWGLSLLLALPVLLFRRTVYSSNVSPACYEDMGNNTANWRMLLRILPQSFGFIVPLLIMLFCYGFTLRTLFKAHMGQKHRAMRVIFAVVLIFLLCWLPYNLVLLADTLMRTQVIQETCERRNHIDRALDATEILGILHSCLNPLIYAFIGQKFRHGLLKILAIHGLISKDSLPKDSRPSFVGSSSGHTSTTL

CCC(CC)Nc1c(Nc2ccc(Cl)c(S(=O)(=O)N(C)OC)c2O)c(=O)c1=O [6-chloro-3-((3,4-dioxo-2-(pentan-3-ylamino)cyclobut-1-en-1-yl)amino)-2-hydroxy-N-methoxy-N-methylbenzenesulfonamide choline salt]
GROα and IL-8-stimulated [35S]GTPγS binding [1]: inhibits | rhGROα-induced neutrophil migration [2]: dose-dependent inhibition | neutrophil shape change induced by rhGROα [3]: dose-dependent inhibition | dose limiting toxicity (DLT) [4]: no patient has developed a DLT

CNC(=O)c1cc(Oc2ccc3nc(N[C@@H]4CCCC[C@H]4O)sc3c2)ccn1 [BLZ945, 4-((2-(((1R,2R)-2-hydroxycyclohexyl)amino)benzo[d]thiazol-6-yl)oxy)-N-methylpicolinamide]
PD-L1 expression (mean fluorescence intensity) in F480+ and F480- tumor-infiltrating cells [5]: enhancement

PDR001: anti-PD-1 antibody molecule (PD-1 inhibitor, Novartis), also known as Spartalizumab
EC50 in SEB activation assay [6]: 0.5 µg/mL | EC50 ([6]; read-out: EC50 in SEB activation assay): 3.68 nM | dose limiting toxicity (DLT) [4]: no patient has developed a DLT

B1: LAG525: LAG-3 inhibitor (Novartis), anti-LAG-3 antibody molecule (antibody, chains of the INN, looked up, V domains shown)
VH: QVQLVQSGAEVKKPGASVKVSCKASGFTLTNYGMNWVRQARGQRLEWIGWINTDTGEPTYADDFKGRFVFSLDTSVSTAYLQISSLKAEDTAVYYCARNPPYYYGTNNAEAMDYWGQGTTVTVSS
VL: DIQMTQSPSSLSASVGDRVTITCSSSQDISNYLNWYLQKPGQSPQLLIYYTSTLHLGVPSRFSGSGSGTEFTLTISSLQPDDFATYYCQQYYNLPWTFGQGTKVEIK
IL-2 production in the SEB assay on titration ([6]; increasing doses of LAG525 with fixed 0.5 ug/ml each of PDR001 and GWN323): dose-responsive production of IL-2
